In patent US5171573A, “4^G -alpha-D-glucopyranosyl rutin, and its preparation and uses” (Kabushiki Kaisha Hayashibara Seibutsu Kagaku Kenkyujo, priority 1989, dated 1992):
≈ marks a conversion by molar mass, not a printed value.

Experiments:
[1] = Physical properties (hygroscopicity, acidity in aqueous solution); type: physicochemical
[2] = Stability in aqueous solution; type: physicochemical; conditions: pH 3-7, aqueous solution
7-week old dd mice = assay: Acute toxicity, oral, 7-week old dd mice
[3] = Solubility in solvents / water-solubility; type: physicochemical
Procedure: Soluble in methanol and ethanol. […] One ml water dissolves about 4.3 g of the present substance at 25° C. Only 1 g rutin (control) dissolves in 8 liters of water.

[4] = test system: alpha-glucosidase derived from pig liver; assay: Hydrolysis using an alpha-glucosidase derived from pig liver; type: biochemical
Excerpt: ii) Hydrolysis using an alpha-glucosidase derived from pig liver yields 1 mole of glucose per mole of rutin.

[5] = Antioxidant activity on powdered peanut butter (peroxide value during standing at 35° C.)
Procedure: 4^G -Alpha-D-glucopyranosyl rutin was tested for antioxidant activity on powdered peanut butter which is used an example of fatty food substances highly susceptive to oxidation. […] The mixture was placed in a tray, sealed, solidified by allowing it to stand at 35° C. for 1 day, and prepared into a powder which was then placed in aluminum cups and allowed to stand in a 35° C. incubator without sealing. During the standing, the contents in the aluminum cups were periodically checked for their peroxide value. […] As the control, a group with no antioxidant was tested similarly as above.

[6] = ambient temperature, prior art; cited from earlier work

Structure (SMILES): C[C@@H]1O[C@@H](OC[C@H]2O[C@@H](Oc3c(-c4ccc(O)c(O)c4)oc4cc(O)cc(O)c4c3=O)[C@H](O)[C@@H](O)[C@@H]2O[C@H]2O[C@H](CO)[C@@H](O)[C@H](O)[C@H]2O)[C@H](O)[C@H](O)[C@H]1O [4^G -alpha-D-glucopyranosyl rutin]
- acidity in aqueous solution ([1]; aqueous solution): Neutral or slightly acidic
- hygroscopicity / deliquescence ([1]; powder, purity about 99.8%): Non-hygroscopic and non-deliquescent
- Stability in aqueous solution [2]: Superiorily stable
- acute toxicity, in words (7-week old dd mice; 7-week old dd mice, powder of Example A-3): extremely low in toxicity
- acute toxicity: dose up to which no mouse died (7-week old dd mice; 7-week old dd mice, powder of Example A-3, higher dose was difficult): > 5 g
- acute toxicity, in words (7-week old dd mice; dd mice, high-purity powder of Example A-4, same result as Example A-3 powder): extremely low
- Solubility in solvent: 0.1N hydrochloric acid [3]: Readily soluble
- Solubility in solvent: 0.1N sodium hydroxide [3]: Readily soluble
- Solubility in solvent: acetic acid [3]: Readily soluble
- Solubility in solvent: chloroform [3]: Hardly soluble
- Solubility in solvent: ethanol [3]: Soluble
- Solubility in solvent: ethyl acetate [3]: Hardly soluble
- Solubility in solvent: methanol [3]: Soluble
- Solubility in solvent: water [3]: Readily soluble
- solubility improved as compared to that of rutin [3]: about thirty thousand
- solubility ([3]; water): ~4300 mg/mL (≈ 5570 mM)
- glucose yielded on enzymatic hydrolysis [4]: 1 mole of glucose per mole of rutin
- peroxide value ([5]; 0 days): 1.78 meq/kg
- peroxide value ([5]; 8 days): 5.53 meq/kg
- peroxide value ([5]; 27 days): 14.6 meq/kg
- peroxide value ([5]; 42 days): 23.4 meq/kg
- peroxide value ([5]; 55 days): 32.5 meq/kg

Structure (SMILES): C[C@@H]1O[C@@H](OC[C@H]2O[C@@H](Oc3c(-c4ccc(O)c(O)c4)oc4cc(O)cc(O)c4c3=O)[C@H](O)[C@@H](O)[C@@H]2O)[C@H](O)[C@H](O)[C@H]1O [rutin]
- water-solubility [6]: about 0.01 w/v %
- Solubility in 8 liters of water ([3]; 8 liters of water (control)): 1 g
